# Experimental data taken from patent US20200148803A1, “POLYMERIZABLE MULTIFUNCTIONAL ANTIMICROBIAL QUATERNARY AMMONIUM MONOMERS, METHODS OF SYNTHESIS, AND USES THEREOF” (ADA Foundation, priority 2018, published 2020).
# Columns and labels:
# [1] = system: mouse subcutaneous connective tissue fibroblasts (NCTC clone 929, CCL1); assay: Direct contact cytotoxicity, LIVE/DEAD viability, CCL1 cells; type: cell-based
# [2] = system: human gingival fibroblasts (HGF); assay: Cellular metabolic activity (CellTiter AQueous One Solution Reagent), HGF cells; type: cell-based; conditions: for effect on metabolic activity of HGF cells: two-fold serial dilutions, 24 h and 72 h
# Experimental: (§1) Immortalized human gingival fibroblasts (HGF) were purchased from Applied Biological Materials, Inc. (Richmond, British Columbia, Canada). […] For experiments, cells were obtained from a subconfluent stock culture.
# (§2) Direct contact cytotoxicity testing was conducted as previously described^7, 8. Briefly, cells were exposed to two-fold serial dilutions of AMadh series monomers or AMsil series monomers to approximate the maximum possible exposure, (Table 9). Table 9 illustrates biocompatibility testing using maximum possible monomer exposure (mmol/L), assuming 7% mass fraction in the restorative with a maximum of 2% leaching. To account for multiplicity and variable size of restorations, a two- and four-fold greater dilution was also included in the testing. After 24 and 72 h, cells were assessed for cell viability using the LIVE/DEAD® Viability/Cytotoxicity kit (Life Technologies, Corp., Grand Island, N.Y.). Cellular metabolic activity was subsequently assessed using the CellTiter® AQueous One Solution Reagent (Promega, Corp., Madison, Wis.). Negative controls were without the novel monomer and/or cells. Mean+standard error was obtained from five independent replicates tested in triplicate.
# CCL1 cells = assay: Cellular metabolic activity (CellTiter AQueous One Solution Reagent), CCL1 cells; type: cell-based; conditions: for effect of monomer concentration on CCL1 metabolic activity: two-fold serial dilutions, 24 h and 72 h
# [3] = Sessile drop water contact angle (CA) on resin pellets; type: physicochemical
# Experimental: (§3) Experimental resin (UPE) was formulated from the commercially available monomers urethane dimethacrylate (UDMA, 50.91% w/w), polyethylene glycol extended urethane dimethacrylate (PEG-U, 18.18% w/w), and ethyl 2-(hydroxymethyl)acrylate (EHMA, 30.91% w/w). A conventional visible light initiator system comprised of camphorquinone (0.2% w/w) and ethyl-4-N,N-dimethylamino benzoate (4EDMAB, 0.8% w/w) was utilized. […] Copolymer specimens (beams) were prepared by depositing UPE (UPE resin control) and AM-UPE resins into glass molds (2 mm×2 mm×25 mm) and photopolymerizing them with a dental curing light (Triad 2000, Dentsply, Charlotte, N.C., USA) for 2 minutes from two sides. Copolymer specimens (pellets) were prepared by depositing UPE and AM-UPE resins into a stainless-steel mold (1 mm×16 mm), sandwiched between two sheets of Mylar film and two glass slides and photopolymerized in the same manner as the beam samples. Degree of vinyl conversion (DVC) of UPE and AM-UPE resins was determined utilizing beam samples by collecting the near infra-red (NIR) spectra (Nexus 670, ThermoFisher, Madison, Wis., USA) before and 24 h after polymerization and calculating the reduction in absorption band at 6165 cm^−1 corresponding to the vinyl (C═C—H) overtone signal. By maintaining a constant specimen thickness, a need for an invariant internal standard was eliminated. The DVC was calculated as: […]
# (§4) where Area(polymer) and Area(monomer) correspond to the areas under 6165 cm^−1 peaks after and before the polymerization, respectively. After DVC analysis, flexural strength (FS) and elastic modulus (E) of beam specimen were determined employing the Universal Testing Machine (Instron 5500R, Instron Corp., Canton, Mass., USA). The load was applied (at cross-head speed of 1 mm/min) to the center of a specimen positioned on a test device with supports 20 mm apart. The FS and E of the specimens (three replicates/experimental group) was calculated as instructed in the ISO4049:2009 document. Changes in hydrophilicity/hydrophobicity of UPE resins due to the introduction of AM monomers were assessed on pellet specimen by sessile drop contact angle (CA) measurements (drop shape analyzer DSA100, Krüss GmbH, Hamburg, Germany). Following the deposition of 4 μL water droplets on the resin pellets, the pellets were imaged after 1 min resting time with a camera at the points of intersection (three-phase contact points) between the drop contour and the projection of the surface (baseline). The CA water values were calculated employing the Krüss Advance software. At least four repetitive measurements were performed in each group. Analysis of variance (ANOVA) and Newman-Keuls multiple paired comparisons (at 95% confidence level) were used to analyze the experimental data as a function of resin composition and establish a statistical significance of differences between the experimental groups (WINKS 7.0.9, TexaSoft, Cedar Hills, Tex., USA).
# [4] = Degree of vinyl conversion (DVC) by near infra-red spectra of copolymer beams; type: physicochemical
# Experimental: as §3, §4
# [5] = system: human gingival fibroblasts (HGF); assay: Direct contact cytotoxicity, LIVE/DEAD viability, HGF cells; type: cell-based; conditions: for effect of monomer concentration on HGF cell viability: two-fold serial dilutions, 24 h and 72 h
# Experimental: as §1, §2
compound,measurement,setting,value
"C=C(C)C(=O)OCC[N+](C)(C)CCC[Si](OC)(OC)OC.[I-] [AMsil1, N-(2-(methacryloyloxy)ethyl)-N,N-dimethyl-3-(trimethoxysilyl)propan-1-aminium iodide]",dead CCL1 cells,"[1]; 0.07 mmol/L, 24 h",128.0 ± 27.1 % Control
same,live CCL1 cells,"[1]; 0.07 mmol/L, 24 h",156.8 ± 21.4 % Control
same,dead CCL1 cells,"[1]; 0.07 mmol/L, 72 h",134.0 ± 36.5 % Control
same,live CCL1 cells,"[1]; 0.07 mmol/L, 72 h",122.5 ± 5.6 % Control
same,dead CCL1 cells,"[1]; 0.13 mmol/L, 24 h",85.1 ± 11.2 % Control
same,live CCL1 cells,"[1]; 0.13 mmol/L, 24 h",145.1 ± 14.8 % Control
same,dead CCL1 cells,"[1]; 0.13 mmol/L, 72 h",140.3 ± 32.7 % Control
same,live CCL1 cells,"[1]; 0.13 mmol/L, 72 h",122.1 ± 8.5 % Control
same,dead CCL1 cells,"[1]; 0.26 mmol/L, 24 h",96.8 ± 15.5 % Control
same,live CCL1 cells,"[1]; 0.26 mmol/L, 24 h",154.5 ± 25.0 % Control
same,live CCL1 cells,"[1]; 0.26 mmol/L, 72 h",108.9 ± 18.6 % Control
same,dead CCL1 cells,"[1]; 0.52 mmol/L, 24 h",117.4 ± 27.1 % Control
same,live CCL1 cells,"[1]; 0.52 mmol/L, 24 h",147.3 ± 20.3 % Control
same,dead CCL1 cells,"[1]; 0.52 mmol/L, 72 h",124.6 ± 22.9 % Control
same,live CCL1 cells,"[1]; 0.52 mmol/L, 72 h",122.9 ± 11.1 % Control
same,dead CCL1 cells,"[1]; 1.04 mmol/L, 24 h",96.0 ± 16.2 % Control
same,live CCL1 cells,"[1]; 1.04 mmol/L, 24 h",157.9 ± 18.8 % Control
same,dead CCL1 cells,"[1]; 1.04 mmol/L, 72 h",128.8 ± 20.2 % Control
same,live CCL1 cells,"[1]; 1.04 mmol/L, 72 h",142.0 ± 6.5 % Control
same,dead CCL1 cells,"[1]; 2.09 mmol/L, 24 h",86.1 ± 11.7 % Control
same,live CCL1 cells,"[1]; 2.09 mmol/L, 24 h",152.5 ± 20.3 % Control
same,dead CCL1 cells,"[1]; 2.09 mmol/L, 72 h",147.6 ± 38.5 % Control
same,live CCL1 cells,"[1]; 2.09 mmol/L, 72 h",136.0 ± 7.2 % Control
same,dead CCL1 cells,"[1]; 4.17 mmol/L, 24 h",85.8 ± 13.1 % Control
same,live CCL1 cells,"[1]; 4.17 mmol/L, 24 h",161.3 ± 15.2 % Control
same,dead CCL1 cells,"[1]; 4.17 mmol/L, 72 h",91.6 ± 13.7 % Control
same,live CCL1 cells,"[1]; 4.17 mmol/L, 72 h",132.1 ± 6.7 % Control
same,dead CCL1 cells,"[1]; 8.34 mmol/L, 24 h",93.0 ± 15.4 % Control
same,live CCL1 cells,"[1]; 8.34 mmol/L, 24 h",149.6 ± 37.4 % Control
same,dead CCL1 cells,"[1]; 8.34 mmol/L, 72 h",106.8 ± 7.4 % Control
same,live CCL1 cells,"[1]; 8.34 mmol/L, 72 h",110.8 ± 12.3 % Control
same,"exposure time reduced the number of live CCL1 cells, fold difference of mean",[1]; 24 h vs 72 h,1.2 fold
same,effect of monomer concentration on CCL1 cell viability,"[1]; two-fold serial dilutions, 24 h and 72 h",did not exert a statistical effect
same,effect on metabolic activity of HGF cells,[2],did not statistically affect the metabolic activity
same,effect of monomer concentration on CCL1 metabolic activity,CCL1 cells,did not affect
same,CA,[3]; 10 mass % monomer in UPE resin,46.9±5.9 °
same,reduction of CA relative to UPE resin control,[3]; 10 mass % monomer in UPE resin,23%
same,effect on hydrophobic-hydrophilic properties of the copolymer,[3]; 10 mass percent in UPE resin,a shift towards the lower CA values
same,effect on hydrophobic-hydrophilic properties of the copolymer,[3]; 20 mass percent in UPE resin,maintained the hydrophobic-hydrophilic balance
same,reduction of DVC relative to UPE resin control,[4]; 10 mass percent in UPE resin,approximately 27%
same,reduction of DVC relative to UPE resin control,[4]; 20 mass percent in UPE resin,~17%
same,"exposure time reduced HGF viability, difference of means","[5]; 24 h vs 72 h, independent of concentration",19.73
same,number of live HGFs,[5]; lower concentrations (≤0.13 mmol/L),decreased
same,effect of monomer concentration on HGF cell viability,[5],exerted a main effect
"C=C(C)C(=O)OCC[N+](C)(C)CCCCCCCCCCC(=O)O.[Br-] [AMadh2, 10-carboxy-N-(2-(methacryloyloxy)ethyl)-N,N-dimethyldecan-1-aminium bromide]","percentage of live CCL1 cells, fold lower compared to concentrations ≤4.4 mmol/L","[1]; 8.8 mmol/L, 72 h exposure",at least 10 fold
same,"least squares mean of live CCL1 cells, fold lower than at lower concentrations","[1]; 8.8 mmol/L, independent of time",approx. 2 fold
same,percent live CCL1 cells compared to control group (no monomer),[1]; ≤2.2 mmol/L (24 h) and ≤0.28 mmol/L (72 h),increased
same,effect of concentration on the number of dead CCL1 cells,[1]; ≤8.8 mmol/L,not statistically different
same,"time of exposure decreased HGF metabolic activity, difference of means",[2]; 24 h vs 72 h,19.01
same,effect on metabolic activity of HGF cells,[2],not affected by the level of AMadh2
same,CCL1 cell metabolic activity,"CCL1 cells; 24 h, 8.8 mm/L",reduced
same,CCL1 cell metabolic activity,CCL1 cells; 72 h,markedly reduced
same,effect of monomer concentration on CCL1 metabolic activity,CCL1 cells,exerted an effect
same,effect on hydrophobic-hydrophilic properties of the copolymer,[3]; 10 mass percent in UPE resin,a shift towards the lower CA values
same,reduction of water CA relative to UPE resin control,[3]; 10 mass percent in UPE resin,18 °
same,effect on hydrophobic-hydrophilic properties of the copolymer,[3]; 20 mass percent in UPE resin,did not alter the hydrophobic-hydrophilic properties
same,"effect of exposure time on HGF live cells, difference of means","[5]; 24 h vs 72 h, regardless of concentration",~16%
same,effect of monomer concentration on HGF cell viability,[5],no significant effect
